Laboratory results as given in patent US20240368566A1, “PYK2-DERIVED PEPTIDES FOR INHIBITING INVADOPODIA-MEDIATED CANCER METASTASIS” (BAR-ILAN UNIVERSITY, priority 2023, published 2024).

Tests used:
Format in all cases: cell-based, human
MDA-MB-231 cells [1] = experiment: Invadopodium precursor formation assay; details: 4 h, 0.1, 1 or 5 μM peptide
Experimental: The invadopodium precursor formation assay was performed as described in Genna et al., 2018 (supra). Briefly, gelatin was conjugated to Alexa 405 dye (Thermo Fisher Scientific). MatTek dishes were treated with 1 N HCl and coated with 50 μg/ml poly-L-lysine. A 0.2% gelatin solution was prepared in PBS, and a 1:20 mixture of Alexa 405-labeled gelatin/unlabeled gelatin was warmed to 37° C. before addition to the poly-L-lysine coated plates. Gelatin was cross-linked with 0.01% glutaraldehyde followed by quenching with 5 mg/ml sodium borohydride. 125,000 MDA-MB-231 cells were plated on Alexa 405-labeled gelatin plates in the presence of 0.1, 1, or 5 μM of Pyk2-PRR peptides or scrambled control for 4 h. At the end of incubation, cells were fixed in 3.7% paraformaldehyde, permeabilized with 0.1% Triton X-100, blocked with 1% FBS, 1% BSA in PBS, and labeled with anti-Tks5 and anti-cortactin. Images were acquired using an inverted fluorescent microscope (Leica AF6000; 63×, NA 1.4, oil objective, Leica LAS AF acquisition software) (Wetzlar, Germany) equipped with an ORCA-Flash 4.0 V2 digital CMOS camera (Hamamatsu Photonics, Shizuoka, Japan).

MDA-MB-231 cells [2] = experiment: 3D scratch wound assay in Matrigel; details: 0.1, 1, 5 μM peptide; versus scrambled control
Experimental: The 3D scratch wound assay was performed as described in Meirson et al. Targeting invadopodia-mediated breast cancer metastasis by using ABL kinase inhibitors. Oncotarget 2018; 9: 22158-22183. Briefly, 96 well Image Lock microtiter plates (Essen Bioscience) were coated with 100 μg/ml Matrigel (cat #354234; Corning, New-York, NY, USA). Following overnight incubation at 37° C., MDA-MB-231 cells were plated at a final concentration of 350,000 cells/ml and allowed to adhere for 12-16 h in the presence of Pyk2-PRR or control peptides. Following wounding of the bottom Matrigel-cells layer, a top layer of Matrigel was added to a final concentration of 2 mg/ml and allowed to polymerize for 30 min at 37° C. Pyk2-PRR or control scrambled peptides were then added again in DMEM/10% FBS to a final concentration of 0.1, 1, or 5 μM, with or without the MMP inhibitor GM6001 ([…]). Plates were placed in a 37° C. heated chamber, and images were collected using the IncuCyte® Zoom platform (Essen Bioscience; 20×, NA 0.60, air objective). Phase images were collected every one hour for a total of 12 h using the IncuCyte® acquisition software.

MDA-MB-231 cells [3] = experiment: 2D single-cell random migration assay; details: all concentrations; 12 hours; compared to control peptide; data not shown
Experimental: The 2D single-cell random migration assay was performed as previously described in Genna et al. Pyk2 and FAK differentially regulate invadopodia formation and function in breast cancer cells. J Cell Biol 2018; 217: 375-395. In brief, 6-well microtiter plates were coated with 10 μg/ml fibronectin and blocked with 1% denatured BSA. Peptide pre-treated cells were plated at 20,000 cells/well in DMEM/10% FBS containing peptides and allowed to adhere for 12-16 h. Plates were placed in a 37° C. heated chamber, and images were collected using the IncuCyte® Zoom platform (Essen Bioscience, Ann Arbor, MI, USA; 20×, NA 0.60, air objective). Phase images were collected every one hour for a total of 12 h using the IncuCyte® acquisition software. Trajectory plots, accumulated distance (total cell path length), Euclidean distance (the shortest distance between the starting point and endpoint of migration), and velocity were calculated using the chemotaxis and migration tool (ibidi GMBH, Grafelfing, Germany).

cortactin tyrosine Y421 = experiment: Immunofluorescence analysis of cortactin tyrosine phosphorylation at invadopodium precursors; details: EGF stimulation 3 min; all concentrations (0.1, 1, 5 μM)
Experimental: Twenty-four hours before each experiment, cells were plated on fibronectin/gelatin unlabeled matrix in the presence of a Pyk2-PRR or control peptides at 0.1, 1, and 5 μM concentration and allowed to attach for eight hours. Cells were then starved in DMEM/0.5% FBS for 16 h in the presence of peptides and stimulated with 2.5 nM EGF for 3 min or left un-stimulated (0 min EGF). Cells were fixed and stained with mouse phospho-specific cortactin antibody (pY421). To image invadopodia Z-plane, focus was on the ventral surface of the cell where the leading edge containing cortactin is focused. The pixels corresponding to invadopodia dots were then analyzed, not the whole cell. The intensity (mean grey value (mgv) minus background) of cortactin-TagRFP and pY421-cortactin at invadopodium precursors was quantified. The pY421-cortactin/cortactin-TagRFP ratio was calculated as a measure of tyrosine-phosphorylated cortactin at cortactin-rich puncta. Data were normalized to resting cells (0 min EGF) and presented as the relative fold change in cortactin tyrosine phosphorylation.

[4] = test system: interaction between Pyk2 and cortactin in invadopodia; experiment: Acceptor photobleaching FRET assay; details: 0.1, 1, 5 μM peptide; mature matrix-degrading invadopodia
Experimental: Acceptor photobleaching experiments were performed as described in Genna et al., 2018 (supra). In brief, cortactin-TagRFP MDA-MB-231 cells were plated on Alexa 405 gelatin in a medium containing Pyk2-PRR or scrambled control peptides at 0.1, 1, and 5 μM concentration, fixed, and immunostained with pY402-Pyk2/Alexa Fluor 488-goat anti-rabbit (donor) and cortactin/Alexa Fluor 555-goat anti-mouse (acceptor). As a control, cells were stained with Tks5/Alexa Fluor 488-goat anti-rabbit (donor) and cortactin/Alexa Fluor 555-goat anti-mouse (acceptor). Co-localization of cortactin with degradation holes in Alexa 405-labeled gelatin was used to identify mature degrading invadopodia. For all FRET experiments, cells were imaged in PBS at room temperature on a laser-scanning inverted confocal microscope (Zeiss LSM780; 60×, NA 1.4, oil objective). A region of interest surrounding invadopodia was bleached using 100% 561-nm laser power (acceptor channel), and images were acquired in both the 488 nm and the 561 nm channels before and after bleaching. FRET efficiency was calculated as the E=1−(donor pre/donor post) in background-subtracted images and was corrected for fluctuations in laser power and donor bleaching in ImageJ.

Structure (SMILES): C[C@H](NC(=O)[C@@H](N)[C@@H](C)O)C(=O)N[C@@H](Cc1ccccc1)C(=O)N[C@@H](CCC(N)=O)C(=O)N[C@@H](CCC(=O)O)C(=O)N1CCC[C@H]1C(=O)N1CCC[C@H]1C(=O)N1CCC[C@H]1C(=O)N[C@@H](CCCCN)C(=O)N1CCC[C@H]1C(=O)N[C@@H](CO)C(=O)N[C@@H](CCCNC(=N)N)C(=O)N1CCC[C@H]1C(=O)N[C@@H](CCCCN)C(=O)N[C@@H](Cc1ccc(O)cc1)C(=O)N[C@@H](CCCNC(=N)N)C(=O)N1CCC[C@H]1C(=O)N1CCC[C@H]1C(=O)N1CCC[C@H]1C(=O)O [Pyk2-PRR2, TAFQEPPPKPSRPKYRPPP]
- mature, matrix-degrading invadopodia (MDA-MB-231 cells [1]; co-localization with degradation regions): significant decrease
- immature invadopodium precursors (MDA-MB-231 cells [1]; cortactin and Tks5 co-localization): significant increase
- invasion towards a scratch wound in 3D Matrigel (MDA-MB-231 cells [2]): significantly reduced ability to close the gap
- 2D motility (accumulated and Euclidean distances, velocity) (MDA-MB-231 cells [3]): reduced 2D motility
- cortactin Y421 phosphorylation (cortactin tyrosine Y421): completely abolished
- interaction between Pyk2 and cortactin in invadopodia (FRET) [4]: significantly inhibited
